Test results as given in patent US10035989B2, “Method for producing polyunsaturated fatty acids in transgenic plants” (BASF Plant Science GmbH, priority 2004, dated 2018).
Like-named read-outs stand apart in the source and are kept apart here.

Tests used:
ELO(Ci) elongase = assay: Expression of ELO(Ci) in yeast (feeding, GLC of FAMEs); assay type: cell-based, Ciona intestinalis; details: amounts fed: in each case 250 μM
Protocol: The yeasts were subsequently plated onto complete uracil dropout minimal medium supplemented with 2% glucose. […] Fatty acid methyl esters (FAMEs) were prepared from the yeast cell sediments by acid methanolysis. […] The FAMEs were extracted by twice extracting with petroleum ether (PE). […] (holding). […] Thereafter, the FAMEs were analyzed via GLC.

ELO(XI) elongase = assay: Expression of ELO(XI) in yeast (feeding, GLC of FAMEs); assay type: cell-based, Xenopus laevis; details: amounts fed: in each case 250 μM
Protocol: (§1) The yeasts were subsequently plated onto complete uracil dropout minimal medium supplemented with 2% glucose.
(§2) Fatty acid methyl esters (FAMEs) were prepared from the yeast cell sediments by acid methanolysis. […] The FAMEs were extracted by twice extracting with petroleum ether (PE). […] (holding).
(§3) Thereafter, the FAMEs were analyzed via GLC.

TL16y2 Δ5-elongase = assay: Expression of TL16y2 in yeast (feeding experiments, GC); assay type: cell-based, Thraustochytrium ssp.
Protocol: as §1
(§4) The substrate specificity of BioTaurELO1 was determined after expression and feeding of various fatty acids (FIG. 6). […] After the fatty acids had been extracted from the yeasts, they were transmethylated and separated by gas chromatography. The elongation products originating from the two fatty acids which had been fed are identified by arrows.
The functionality and substrate specificity of TL16y2 were determined after expression and feeding of various fatty acids. […] The feeding experiments were carried out in the same manner as described for BioTaurELO1. The substrates which have been fed can be detected in large amounts in all transgenic yeasts. […] This means that the gene TL16y2 has been expressed functionally.

BioTaurELO1 Δ5-elongase = assay type: cell-based, Thraustochytrium aureum ATCC34304
Protocol: as §1, §4

OtElo2.1 (Δ6-elongase) = assay type: cell-based, Ostreococcus tauri
OtElo2 (Δ6-elongase) = assay type: cell-based, Ostreococcus tauri
OtDes6.1 (Δ6-desaturase) = assay: Substrate specificity of the desaturase OtDes6.1 in yeast (feeding, GLC of FAMEs); details: conversion rate of the substrate fed to yeast with pYES2-OtDes6.1; mean (n=3)
Source text: The Saccharomyces cerevisiae strain 334 was transformed by electroporation (1500 v) with the vector pYES2.1-OtDes6.1. A yeast which was transformed with the blank vector pYES2 was used as the control. The transformed yeasts were selected on complete minimal dropout uracil medium (CMdum) agar plates supplemented with 2% glucose. After the selection, in each case three transformants were selected for the further functional expression.
To express the OtDes6.1 desaturase, precultures of in each case 5 ml of dropout uracil CMdum liquid medium supplemented with 2% (w/v) raffinose were inoculated with the selected transformants and incubated for 2 days at 30° C., 200 rpm. 5 ml of CMdum liquid medium (without uracil) supplemented with 2% raffinose and 300 μm of various fatty acids were then inoculated with the precultures to an OD600 of 0.05. Expression was induced by addition of 2% (w/v) galactose. The cultures were incubated for a further 96 hours at 20° C. […]
The yeasts which had been transformed with the vector pYES2-OtDes6.1 were cultured in minimal medium in the presence of the fatty acids detailed. […] Thereafter, the FAMEs were analyzed via GLC. […] The activity corresponds to the conversion rate calculated using the formula [substrate/(substrate+product)*100].

[1] = tested on: biosynthesis of DHA (OmElo3, Euglena gracilis Δ4-desaturase, Phaeodactylum tricornutum Δ5-desaturase); assay: Reconstitution of the synthesis of DHA in yeast by coexpressing OmElo3, EgD4 and PtD5; assay type: cell-based, Saccharomyces cerevisiae
Protocol: The reconstitution of the biosynthesis of DHA (22:6 ω3) was carried out starting from EPA (20:5 ω3) or stearidonic acid (18:4 ω3) by coexpressing OmElo3 together with the Euglena gracilis Δ4-desaturase or the Phaeodactylum tricornutum Δ5-desaturase and the Euglena gracilis Δ4-desaturase. To this end, the expression vectors pYes2-EgD4 and pESCLeu-PtD5 were additionally constructed. The abovementioned yeast strain which is already transformed with pYes3-OmElo3 (SEQ ID NO: 55), was then transformed further with pYes2-EgD4, or simultaneously with pYes2-EgD4 and pESCLeu-PtD5. […] The cultures were subsequently incubated for a further 120 hours at 15° C.
The additional introduction of the EEgΔ4-desaturase led to the conversion of 22:5 ω3 into 22:6 ω3 DHA. After coexpression of OmElo3 and EgD4, up to 3% DHA was detected in yeasts.
In a further coexpression experiment, OmElo3, EgD4 and a Δ5-desaturase from P. tricomutum (PtD5) were expressed together. The transgenic yeasts were fed stearidonic acid (18:4 ω3) and analyzed (FIG. 4). OmElo3 elongated the fed fatty acid 18:4 ω3 to give 20:4 ω3 (60% elongation). The latter was desaturated by PtD5 to give 20:5 ω3. The PtD5 activity amounted to 15%. Furthermore, 20:5 ω3 was elongated by […] to give 22:5 ω3. Thereafter, the newly synthesized 22:5 ω3 was desaturated to give 22:6 ω3 (DHA). Up to 0.7% of DHA was obtained in these experiments.

PtELO6 (Δ6-elongase) = assay: Substrate specificity of PtELO6 in yeast (feeding, GLC of FAMEs); assay type: cell-based, Phaeodactylum tricornutum; details: fatty acids fed to yeast pYES2-PtELO6
OtElo1 (Δ5-elongase) = assay type: cell-based, Ostreococcus tauri; details: yeast transformed with pOTE1 (Table 18)
OtElo1.2 (Δ5-elongase) = assay type: cell-based, Ostreococcus tauri; details: yeast transformed with pOTE1.2 (Table 18)
TpELO3 (Δ6-elongase) = assay: Expression of TpELO3 in yeast (feeding, GLC of FAMEs); assay type: cell-based, Thalassiosira pseudonana
Protocol: as §1, §2, §3

OmElo3 elongase = assay: Functional characterization of OmELO3 in yeast (fatty acid feeding, GLC of FAMEs); assay type: cell-based, Oncorhynchus mykiss; details: expression in yeast, different substrates
OmELO2 = assay: Functional characterization of OmELO2 in yeast (fatty acid feeding, GLC of FAMEs); assay type: cell-based, Oncorhynchus mykiss; details: expression in yeast
[2] = 250 μm fatty acid fed (Table 7)
[3] = fatty acid fed to yeast expressing BioTaurELO1

## CCCCCCCCCCCCCCCC(=O)O [16:0]
ELO(Ci) elongase
  Conversion of the starting materials by ELO(Ci) in %: 0%
ELO(XI) elongase
  Conversion of the starting materials by ELO(XI) in %: 3%

## CCCCCC/C=C\CCCCCCCC(=O)O [16:1^Δ9, palmitoleic acid]
ELO(Ci) elongase
  Conversion of the starting materials by ELO(Ci) in %: 0%
ELO(XI) elongase
  Conversion of the starting materials by ELO(XI) in %: 0%

## CCCCCCCCCCCCCCCCCC(=O)O [18:0]
ELO(Ci) elongase
  Conversion of the starting materials by ELO(Ci) in %: 0%
ELO(XI) elongase
  Conversion of the starting materials by ELO(XI) in %: 2%

## CCCCC/C=C\C/C=C\CCCCCCCC(=O)O [18:2^Δ9,12, linoleic acid]
ELO(Ci) elongase
  Conversion of the starting materials by ELO(Ci) in %: 23%
ELO(XI) elongase
  Conversion of the starting materials by ELO(XI) in %: 3%

## CCCCC/C=C\C/C=C\CC/C=C\CCCC(=O)O [18:3^Δ5,9,12, pinolenic acid (all-cis-5,9,12-octadecatrienoic acid)]
ELO(Ci) elongase
  Conversion of the starting materials by ELO(Ci) in %: 38%
ELO(XI) elongase
  Conversion of the starting materials by ELO(XI) in %: 13%

## CCCCC/C=C\C/C=C\C/C=C\CCCCC(=O)O [18:3^Δ6,9,12, γ-linolenic acid]
TL16y2 Δ5-elongase; [2]
  conversion rate in %: 74.9%
BioTaurELO1 Δ5-elongase
  conversion rate: 65.28%
ELO(Ci) elongase
  Conversion of the starting materials by ELO(Ci) in %: 10%
ELO(XI) elongase
  Conversion of the starting materials by ELO(XI) in %: 12%
OtElo2.1 (Δ6-elongase)
  Conversion rate of OtElo2.2 (in %): 55.7%
OtElo2 (Δ6-elongase)
  Conversion rate of OtElo2 (in %): 15.3%

## CC/C=C\C/C=C\C/C=C\CCCCCCCC(=O)O [18:3^Δ9,12,15, α-linolenic acid]
OtDes6.1 (Δ6-desaturase)
  Activity in %: 64.6%
ELO(Ci) elongase
  Conversion of the starting materials by ELO(Ci) in %: 25%
ELO(XI) elongase
  Conversion of the starting materials by ELO(XI) in %: 3%

## CC/C=C\C/C=C\C/C=C\C/C=C\CCCCC(=O)O [18:4^Δ6,9,12,15, stearidonic acid]
TL16y2 Δ5-elongase; [2]
  conversion rate in %: 79.4%
BioTaurELO1 Δ5-elongase; [3]
  conversion rate: 65.66%
[1]; coexpression of OmElo3, EgD4 and PtD5, fed 18:4 ω3
  elongation of 18:4 ω3 to 20:4 ω3: 60%
ELO(Ci) elongase
  Conversion of the starting materials by ELO(Ci) in %: 3%
ELO(XI) elongase
  Conversion of the starting materials by ELO(XI) in %: 20%
OtElo2.1 (Δ6-elongase); yeast transformed with pOTE2.1 (Table 19)
  Conversion rate of OtElo2.2 (in %): 70.4%
OtElo2 (Δ6-elongase); yeast transformed with pOTE2 (Table 19)
  Conversion rate of OtElo2 (in %): 21.1%

## CCCCC/C=C\C/C=C\C/C=C\CCCCCCC(=O)O [20:3^Δ8,11,14, dihomo-γ-linolenic acid]
PtELO6 (Δ6-elongase)
  conversion by PtELO6: not converted
ELO(Ci) elongase
  Conversion of the starting materials by ELO(Ci) in %: 10%
ELO(XI) elongase
  Conversion of the starting materials by ELO(XI) in %: 5%

## CC/C=C\C/C=C\C/C=C\CCCCCCCCCC(=O)O [20:3^Δ11,14,17]
PtELO6 (Δ6-elongase)
  conversion by PtELO6: not converted
ELO(Ci) elongase
  Conversion of the starting materials by ELO(Ci) in %: 8%
ELO(XI) elongase
  Conversion of the starting materials by ELO(XI) in %: 13%

## CCCCC/C=C\C/C=C\C/C=C\C/C=C\CCCC(=O)O [20:4^Δ5,8,11,14, arachidonic acid]
TL16y2 Δ5-elongase; [2]
  conversion rate in %: 20.3%
BioTaurELO1 Δ5-elongase; [3]
  conversion rate: 14.47%
PtELO6 (Δ6-elongase)
  conversion by PtELO6: not converted
ELO(Ci) elongase
  Conversion of the starting materials by ELO(Ci) in %: 10%
OtElo1 (Δ5-elongase)
  Conversion rate of OtElo1 (in %): 10.8 ± 0.6%
ELO(XI) elongase
  Conversion of the starting materials by ELO(XI) in %: 15%
OtElo1.2 (Δ5-elongase)
  Conversion rate of OtElo1.2 (in %): 38.0%

## CC/C=C\C/C=C\C/C=C\C/C=C\C/C=C\CCCC(=O)O [20:5^Δ5,8,11,14,17, eicosapentaenoic acid]
TL16y2 Δ5-elongase; 50 μm fatty acid fed
  conversion rate in %: 41%
TL16y2 Δ5-elongase; [2]
  conversion rate in %: 8%
BioTaurELO1 Δ5-elongase; [3]
  conversion rate: 22.01%
BioTaurELO1 Δ5-elongase; when feeding GLA and EPA together
  conversion rate: 9.99%
[1]; yeast with pYes3-OmElo3 and blank vector pYes2, fed 20:5 ω3
  elongation of 20:5 ω3 to 22:5 ω3: 65%
ELO(Ci) elongase
  Conversion of the starting materials by ELO(Ci) in %: 15%
OtElo1 (Δ5-elongase)
  Conversion rate of OtElo1 (in %): 46.8 ± 3.6%
ELO(XI) elongase
  Conversion of the starting materials by ELO(XI) in %: 10%
OtElo1.2 (Δ5-elongase)
  Conversion rate of OtElo1.2 (in %): 68.6%

## CCCCCC=CCC=CCC=CCC=CCCCCCC(=O)O [22:4^Δ7,10,13,16, docosatetraenoic acid]
PtELO6 (Δ6-elongase)
  conversion by PtELO6: not converted
ELO(Ci) elongase
  Conversion of the starting materials by ELO(Ci) in %: 0%
ELO(XI) elongase
  Conversion of the starting materials by ELO(XI) in %: 0%

## CC/C=C\C/C=C\C/C=C\C/C=C\C/C=C\C/C=C\CCC(=O)O [22:6^Δ4,7,10,13,16,19, docosahexaenoic acid]
ELO(Ci) elongase
  Conversion of the starting materials by ELO(Ci) in %: 0%
ELO(XI) elongase
  Conversion of the starting materials by ELO(XI) in %: 0%

## eicosadienoic acid [20:2^Δ11,14]
PtELO6 (Δ6-elongase)
  conversion by PtELO6: not converted

B1: TpELO3: Δ6-elongase from Thalassiosira pseudonana, SEQ ID NO: 45 (protein, listed as Thalassiosira pseudonana)
chain: MDAYNAAMDKIGAAIIDWSDPDGKFRADREDWWLCDFRSAITIALIYIAFVILGSAVMQSLPAMDPYPIKFLYNVSQIFLCAYMTVEAGFLAYRNGYTVMPCNHFNVNDPPVANLLWLFYISKVWDFWDTIFIVLGKKWRQLSFLHVYHHTTIFLFYWLNANVLYDGDIFLTILLNGFIHTVMYTYYFICMHTKDSKTGKSLPIWWKSSLTAFQLLQFTIMMSQATYLVFHGCDKVSLRITIVYFVSLLSLFFLFAQFFVQSYMAPKKKKSA
modifications: CDS (1)..(819): Delta-5 elongase
TpELO3 (Δ6-elongase); fed 250 μm arachidonic acid
  % conversion, column 5: 0%
TpELO3 (Δ6-elongase); fed 250 μm eicosapentaenoic acid
  % conversion, column 6: 0%
TpELO3 (Δ6-elongase); fed 250 μm stearidonic acid
  % conversion, column 4: 85%
TpELO3 (Δ6-elongase); fed 250 μm γ-linolenic acid
  % conversion, column 3: 75%

B2: OmELO3: elongase from Oncorhynchus mykiss, SEQ ID NO: 53 (protein)
chain: METFNYKLNMYIDSWMGPRDERVQGWLLLDNYPPTFALTVMYLLIVWMGPKYMRHRQPVSCRGLLLVYNLGLTILSFYMFYEMVSAVWHGDYNFFCQDTHSAGETDTKIINVLWWYYFSKLIEFMDTFFFILRKNNHQITFLHIYHHASMLNIWWFVMNWVPCGHSYFGASLNSFIHVLMYSYYGLSAVPALRPYLWWKKYITQVQLIQFFLTMSQTICAVIWPCDFPRGWLYFQIFYVITLIALFSNFYIQTYKKHLVSQKKEYHQNGSVASLNGHVNGVTPTETITHRKVRGD
modifications: Oncorhynchus mykiss; CDS (1)..(885): Delta-5 elongase
OmElo3 elongase
  elongase activity: pronounced activity

B3: OmELO2: gene product from Oncorhynchus mykiss, SEQ ID NO: 51, expressed in yeast (protein)
chain: MASTWQSVQSMRQWILENGDKRTDPWLLVYSPMPVAIIFLLYLGVVWAGPKLMKRREPVDLKAVLIVYNFAMVCLSVYMFHEFLVTSLLSNYSYLCQPVDYSTSPLAMRMAKVCWWFFFSKVIELADTVFFILRKKNSQLTFLHVYHHGTMIFNWWAGVKYLAGGQSFFIGLLNTFVHIVMYSYYGLAALGPHTQKYLWWKRYLTSLQLLQFVLLTTHTGYNLFTECDFPDSMNAVVFAYCVSLIALFSNFYYQSYLNRKSKKT
modifications: Oncorhynchus mykiss; CDS (1)..(795): Delta-5 elongase
OmELO2
  elongase activity: no elongase activity
